The assay relates to phosphorylated MCM2 at Serine 53 (pMCM2-S53) in H1299 cells. In words: Acumen imaging assay for detection of phosphorylated MCM2 in H1299 cells. In kind it is cell-based. The conditions noted are these: 4 hours treatment, Hydrate, read-out: IC50, inhibition of pMCM2-S53. As for the experimental part:
The Acumen® eX3 is used to determine the effect of compounds on the formation of endogenous phosphorylated MCM2 at Serine 53 (pMCM2-S53). Phosphorylation of MCM2 by CDC7 is determined using specific anti-pMCM2-S53 antibody and quantified with fluorescent tagged secondary antibodies by Acumen® eX3 to monitor CDC7 activity in cells. Phosphorylation of MCM2 at Serine 53 is known to be correlated to CDC7 inhibition.
H1299 cells (ATCC #CRL-5803) are maintained in RPMI-1640 (Hyclone SH30809.01) growth medium supplemented with 10% FBS. Cells are harvested using standard cell culture procedures and then counted using Vi-Cell XR Cell Viability Analyzer (Beckman Counter). 3000-6000 H1299 cells in 100 μL of growth medium are plated into each well of Biocoat Poly-D-Lysine 96-well black/clear plate with flat bottom BioCoat™ Multiwell (Becton Dickinson) cell culture plates 356640 and incubated overnight at 37° C., 5% CO2.
Cells are treated with the test compound (50 μL/well) diluted in medium containing 0.6% DMSO and incubated for 4 hours at 37° C. To each well is added 7.4% formaldehyde (150 μL) diluted with PBS from 37% formaldehyde stock and the plates are incubated at room temperature for 30 minutes. Formaldehyde is removed and cold methanol (100 μL) is added. The plates are incubated for 20 minutes at 4° C. to permeabilize the cells. Plates are washed 3× with 100 μL/well of PBS. […] The plates are sealed with black seal and are read on the Acumen® eX3 (TTP LABTECH) using optical filter 500-530 nanometer and 575-640 nanometer for Alexa Fluor 488 and propidium iodide, respectively. The number of pMCM2-S53 positive cells is normalized to total cells for each well and are calculated as percent inhibition relative to on-plate controls. […]

In the case of `CC1(c2ncncc2F)NC(=O)c2cc(-c3cn[nH]c3)ccc21` (single isomer, unassigned; isomer 2) [Example 4, 3-(5-Fluoropyrimidin-4-yl)-3-methyl-6-(1H-pyrazol-4-yl)isoindolin-1-one, Isomer 2, Hydrate], the IC50 (in general, the concentration that gives 50% inhibition) came to 290 nM.

The values above are taken from patent US9156824B2, “CDC7 inhibitors” (Eli Lilly and Company, priority 2013, dated 2015).
